# According to US10358469B2, “Methods and pharmaceutical compositions for the treatment of cancer” (INSERM (INSTITUT NATIONAL DE LA SANTÉ ET DE LA RECHERCHE …, priority 2014, dated 2019):
# Key:
# [1] = system: A549 non-small cell lung cancer xenograft; experiment: A549 lung adenocarcinoma subcutaneous xenograft in nude mice; format: in vivo; settings: 5 mg/kg i.p., 7 daily injections
# Method: A549 cells (1.25×10^6) were injected subcutaneously to six weeks old female nu/nu mice. Following transplantation (n=5-6 per model) tumor growth was assessed by measuring tumor size in two dimension using a Vernier caliper. Tumor volume was calculated using the formula [3.14×long axis×short axis×short axis]/6 (Kjonniksen et al., 1989). Treatment started after randomisation when tumor volumes had reached a size of approximately 100 mm^3 and consisted of intraperitoneal injection of AAC-11-LZ (377-399) or Antp-AAC-11-LZ (377-399) peptides (5 mg/kg) or vehicle (normal saline solution) each day for 7 consecutive days. Mice were weighted and the tumor size was measured by a caliper and recorded daily. Twenty eight days after beginning of the treatment mice were sacrificed. The tumors, kidney, lungs, heart, liver, pancreas and spleen were taken and fixed. Paraffin-embedded sections were prepared and stained with hematoxylin and eosin for histological analysis.
# [2] = system: U2OS cells; experiment: Transwell Boyden chamber migration assay, U2OS cells; format: cell-based; settings: 7.5 μM, serum-free medium with 0.4% BSA, toward 10% FBS, 24 h, FIG. 10A
# Method: (§1) FIG. 10: Antp-AAC-11-LZ (377-399) peptide inhibits cell migration and invasion. (A) U2OS cells were added to the upper well of modified Boyden chamber (transwell) plates in serum-free medium containing 0.4% BSA with a vehicle or with either 7.5 μM of the Antp-AAC-11-LZ (377-399) peptide or the AAC-11-LZ (377-399) peptide and subjected to a transwell migration assay as described under Materials and methods. The cells were allowed to migrate toward 10% FBS for 24 h. Triplicate wells were used for each of three independent experiments. The results are expressed relative to the migration of the untreated cells (=100%). Column: Mean of three experiments. Bar: s.e. P-value was determined by Student's t-test (*P<0.01). (B) U2OS cells were seeded in a Matrigel-coated Boyden chamber in serum-free medium containing 0.4% BSA with a vehicle or with either 7.5 µM of the Antp-AAC-11-LZ (377-399) peptide or the AAC-11-LZ (377-399) peptide and subjected to a transwell migration assay as described under Materials and methods. The cells were allowed to migrate toward 10% FBS for 48 h. Triplicate wells were used for each of three independent experiments. The results are expressed relative to the migration of the untreated cells (=100%). Column: Mean of three experiments. Bar: s.e. P-value was determined by Student's t-test (*P<0.01) […]
# [3] = system: U2OS cells; experiment: Matrigel invasion assay, U2OS cells; format: cell-based; settings: 7.5 μM, toward 10% FBS, 48 h, FIG. 10B
# Method: as §1
# [4] = Toxicity of peptide injection in nude mice; settings: i.p. twice per week for 4 weeks
# Method: Nude mice were injected intraperitoneally twice a week for 4 weeks with normal saline solution or the indicated doses of Antp-AAC-11-LZ (363-399) peptide (n=3-4 mice per group) and were monitored daily for body weight (mean±s.e.m).
# Nude mice were injected intraperitoneally twice a week for 4 weeks with normal saline solution or the indicated doses of Antp-AAC-11-LZ (377-399) peptide (n=3-4 mice per group) and were monitored daily for body weight (mean±s.e.m).
# We first evaluated the toxicity of the Antp-AAC-11-LZ (363-399) peptide in nude mice that were injected intraperitoneally twice per week for 4 weeks with the Antp-AAC-11-LZ (363-399) peptide or normal saline solution (dose range: 0.8-4.8 mg peptide/kg body weight; n=3-4 mice per group).
# We first evaluated the toxicity of the Antp-AAC-11-LZ (377-399) peptide in nude mice that were injected intraperitoneally twice per week for 4 weeks with the Antp-AAC-11-LZ (377-399) peptide or normal saline solution (dose range: 1-6 mg peptide/kg body weight; n=3-4 mice per group).
# [5] = system: A549 cells; experiment: Cell viability (MTT) of A549 cells under low serum / serum deprivation; format: cell-based
# Method: (A) Karpas 1106, SU-DHL-5, SeAx and HUT-78 cells were plated at a densities of 6×10^3 in 96 well plates (100 μL total volume per well) and treated for 24 hours in a 37° C. incubator (5% CO2) with increasing concentrations of the Antp-AAC-11-LZ (363-399). 20 μL MTS reagent was then added to each well and plates were incubated for an additional 4 hours. Absorbance was measured at 490 nm using a 96-well plate reader. The extent to which the Antp-AAC-11-LZ (363-399) peptide inhibited cell proliferation was calculated as a percentage of the absorbance in each well containing the Antp-AAC-11-LZ (363-399) peptide relative to wells containing no peptide (negative control). Each bar represents the mean±s.d. from at least three independent experiments. (B) Indicated cells were plated at a densities of 4.5×10^3 in 96 well plates (100 μL total volume per well) and allowed to attach overnight in a 37° C. incubator (5% CO2). Media was removed from cells and replaced with media containing Antp-AAC-11-LZ (363-399) peptide at various concentrations (100 μL total volume per well) peptide and the plates were incubated for 24 hours. The MTT assay was then completed and data analysis was performed as described herein. […] A549 cells were plated at a densities of 4.5×10^3 in 96 well plates (100 μL total volume per well) and allowed to attach overnight in a 37° C. incubator (5% CO2). Media was removed from cells and replaced with media containing the indicated peptides at 10 μM (100 μL total volume per well) and the plates were incubated for 24 hours. The MTT assay was then completed and data analysis was performed as described herein.
# (A) A549 cells were plated at a densities of 4.5×10^3 in 96 well plates (100 μL total volume per well) and allowed to attach overnight in a 37° C. incubator (5% CO2). Media was removed from cells and replaced with media containing the indicated peptides at various concentrations (100 μL total volume per well) peptide in the absence of serum and the plates were incubated for 24 hours. The MTT assay was then completed and data analysis was performed as described herein. (B) A549 or HaCat cells were plated at a densities of 4.5×10^3 in 96 well plates (100 μL total volume per well) and allowed to attach overnight in a 37° C. incubator (5% CO2). Media was removed from cells and replaced with media containing the indicated peptides at 10 μM (100 μL total volume per well) peptide in the absence of serum and the plates were incubated for 24 hours. The MTT assay was then completed and data analysis was performed as described herein.
# A549 cells were plated at a densities of 4.5×10^3 in 96 well plates (100 μL total volume per well) and allowed to attach overnight in a 37° C. incubator (5% CO2). Cells were left untreated or pre-treated with 100 μM Z-VAD-FMK for 2 h. […] The MTT assay was then completed and data analysis was performed as described herein.
# (A) A549 cells were plated at a densities of 4.5×10^3 in 96 well plates (100 μL total volume per well) and allowed to attach overnight in a 37° C. incubator (5% CO2). Media was removed from cells and replaced with media containing the indicated Antp-AAC-11-LZ peptides at various concentrations (100 μL total volume per well) peptide and the plates were incubated for 24 hours. The MTT assay was then completed and data analysis was performed as described herein. (B) A549 or HaCat cells were plated at a densities of 4.5×10^3 in 96 well plates (100 μL total volume per well) and allowed to attach overnight in a 37° C. incubator (5% CO2). Media was removed from cells and replaced with media containing the indicated peptides at 10 μM (100 μL total volume per well) peptide in the absence of serum and the plates were incubated for 24 hours. The MTT assay was then completed and data analysis was performed as described herein.
Substance,final mean tumor volume relative to control-treated mice ([1]; p=0.01),cell migration [2],cell invasion [3],tumor size versus AAC-11-LZ (377-399) peptide or vehicle ([1]; FIG. 11B),mortality ([4]; 1-6 mg peptide/kg body weight),"body weight difference between groups ([4]; 1-6 mg peptide/kg body weight, FIG. 11A)","toxicity to kidney, lungs, heart, liver, pancreas and spleen ([4]; 1-6 mg peptide/kg, end of experiment)",cellular viability ([5]; 2 µM),"cytotoxicity (decrease of A549 viability) relative to comparison peptide, dose-response ([5]; various concentrations, low-serum conditions, 24 hours, FIG. 2A / 5A)"
AAC-11-LZ (377-399): LQYFARGLQVYIRQLRLALQGKT (SEQ ID NO: 16) (Synthetic AAC-11-LZ (377-399)),less than 25%,didn't show any effect,didn't show any effect,,,,,,
Ac-RQIKIWFKKQNRRMKWKKLQYFARGLQVYIRQLRLALQGKT-NH2 [Antp-AAC-11-LZ (377-399)],,substantially decreased,prevented invasion,significantly smaller tumors,No mice died,no significant difference,no obvious toxicity,5 % of control,markedly increased cytotoxicity potency compared to the parent peptide
